Reference: patent US6943192B2, “Treatment regimen for administration of phenylacetylglutamine, phenylacetylisoglutamine, and/or phenylacetate” (priority 1998, dated 2005)

What was measured:
[1] = tested on: premalignant mesenchymal C3H 10T1/2 cells; conditions: cited from earlier work
[2] = tested on: neuroblastoma; conditions: cited from earlier work
[3] = tested on: Ki-1; conditions: cited from earlier work
[4] = tested on: ovarian carcinoma; conditions: cited from earlier work
[5] = tested on: astrocytoma; conditions: cited from earlier work
[6] = tested on: breast carcinoma cell line HBL-100; conditions: cited from earlier work
[7] = tested on: human promyelocytic leukemia HL-60; conditions: cited from earlier work
[8] = tested on: malignant melanoma; conditions: cited from earlier work
[9] = tested on: murine fibrosarcoma V7T; conditions: cited from earlier work
[10] = tested on: chronic lymphocytic leukemia; conditions: cited from earlier work
[11] = tested on: hormonally refractory prostate adenocarcinoma PC3; conditions: cited from earlier work
[12] = tested on: medulloblastoma; conditions: cited from earlier work
[13] = tested on: K562 erythroleukemia cells; conditions: cited from earlier work
[14] = cited from earlier work
[15] = peak plasma level after oral administration to rats; type: in vivo; conditions: orally administered to rats
Method: First, Burzynski et al. (Drugs Exptl. Clin. Res. 12 Suppl. 1, 11-16 (1986)) reported complete colony reduction of HBL-100 and Ki No. 1 tumor cell lines with 5.0 mg/mL of either phenylacetic acid or antineoplaston AS2-1. […] Under typical administration regimes of antineoplaston AS2-1, the peak plasma levels of phenylacetic acid are approximately […], roughly […] less than the cytostatic concentration observed in tissue culture experiments.

[16] = tested on: KYN-1; conditions: cited from earlier work
[17] = tested on: KMCH-1; conditions: cited from earlier work
[18] = tested on: cancer; conditions: clinical trials; cited from earlier work
[19] = cited from earlier work; remark: listed apart in the source
[20] = tested on: human breast cancer cell line MDA-MB-231; conditions: cited from earlier work
[21] = tested on: S180 cells; conditions: mice implanted with S180 cells; cited from earlier work
[22] = orally administered to rats; cited from earlier work
[23] = tested on: human colon adenocarcinoma; conditions: cited from earlier work
[24] = tested on: KIM-1; conditions: cited from earlier work
[25] = tested on: rat Nb2 lymphoma; conditions: cited from earlier work

Q: For O=C(O)Cc1ccccc1 [phenylacetic acid], which adipocyte conversion [1] is on record?
A: caused adipocyte conversion

Q: And the “tumor progression in premalignant cells” value ([1]; in distinction to 5-aza-2-deoxycitidine)?
A: did not cause tumor progression

Q: What about the “terminal differentiation or phenotypic reversion” value [2] of the same compound?
A: promoted terminal differentiation or phenotypic reversion

Q: What about the “concentration giving complete colony reduction” value ([3]; Ki No. 1) of the same compound?
A: 5.0 mg/mL

Q: And the growth inhibition ([3]; Ki-1)?
A: dose-dependent growth inhibition

Q: What about the “terminal differentiation or phenotypic reversion” value [4] of the same compound?
A: promoted terminal differentiation or phenotypic reversion

Q: And the “terminal differentiation or phenotypic reversion” value [5]?
A: promoted terminal differentiation or phenotypic reversion

Q: What about the “concentration giving complete colony reduction” value [6] of the same compound?
A: 5.0 mg/mL

Q: And the growth inhibition [6]?
A: dose-dependent growth inhibition

Q: And the “terminal differentiation or phenotypic reversion” value [7]?
A: promoted terminal differentiation or phenotypic reversion

Q: And the “terminal differentiation or phenotypic reversion” value [8]?
A: promoted terminal differentiation or phenotypic reversion

Q: And the “terminal differentiation or phenotypic reversion” value [9]?
A: promoted terminal differentiation or phenotypic reversion

Q: What about the “terminal differentiation or phenotypic reversion” value [10] of the same compound?
A: promoted terminal differentiation or phenotypic reversion

Q: What about the “terminal differentiation or phenotypic reversion” value [11] of the same compound?
A: promoted terminal differentiation or phenotypic reversion

Q: And the “terminal differentiation or phenotypic reversion” value [12]?
A: promoted terminal differentiation or phenotypic reversion

Q: What about the hemoglobin production [13] of the same compound?
A: enhanced hemoglobin production

Q: For O=C1CCC(NC(=O)Cc2ccccc2)C(=O)N1 (centres unmarked) [3-phenylacetylamino-2,6-piperidinedione], which clearance in vivo [14] is on record?
A: rapidly cleared in vivo

Q: And the “peak plasma level, fold less than the cytostatic concentration in tissue culture” value [15]?
A: roughly 10 fold

Q: What about the “inhibition of the growth curve” value [16] of the same compound?
A: Dose-dependent inhibition

Q: And the “inhibition of the growth curve” value [17]?
A: Dose-dependent inhibition

Q: And the “efficacy in treating cancer” value [18]?
A: effective in treating cancer

Q: And the solubility in water [19]?
A: poorly soluble in water

Q: What about the “concentration at which cytostasis was observed” value ([20]; MDA-MB-231) of the same compound?
A: 2.0 mg/mL

Q: What about the “effect on cultured MDA-MB-231” value [20] of the same compound?
A: cytostatic effect

Q: What about the “cAMP levels in the livers and tumors of treated mice relative to control mice” value [21] of the same compound?
A: significantly elevated

Q: And the peak plasma level [22]?
A: approximately 0.2 mg/mL

Q: And the “inhibition of the growth curve” value [23]?
A: Dose-dependent inhibition

Q: And the “inhibition of the growth curve” value [24]?
A: Dose-dependent inhibition

Q: And the “inhibition of the growth curve” value [25]?
A: Dose-dependent inhibition
